These results are taken from patent US12369577B2, “Monoterpenoid/phenylpropanoid-containing compounds and methods of their making and use as baits” (KITTRICH CORPORATION, priority 2016, dated 2025).

The structures appear in SMILES notation. “Also recorded” adds a separate entry of the source.

For data set [1], the system named is German cockroaches (Blattella germanica). Kind of data set: German cockroach feeding assay (compound in crushed Cheerios). Type of data set: in vivo. As to conditions: for mortality at two weeks: 15% w/w food, two weeks (FIG. 3); for percentage mortality compared to the control at two weeks / percentage mortality compared to the control: 3.75% weight compound/weight food; for percentage mortality compared to the control at two weeks: α=0.05 (FIG. 2); for percentage mortality compared to the control: 1, 2, and 3 weeks (FIG. 1). How it is done:
Insects were kept in a constant 12:12-hour light: dark cycle and fed a diet of dry cat food (Purina® Cat Chow Complete®, rolled oats (HyVEE® Old Fashioned Oats), and Fluker's® Cricket Quencher.
Five adult German cockroaches (Blattella germanica) were introduced to mason jars with steel mesh at the top to prevent escape. 266.6 mg of crushed Cheerios™ (approximately two cheerios) was mixed with compound at varying concentrations by weight food. If the material was solid, a mortar and pestle was used to homogenize the crushed Cheerios and compound. If the material was a liquid, it was dissolved in acetone and aliquoted into the food slowly until the desired concentration of compound by weight food was achieved. If acetone was used as the carrier throughout the experiment, the food was carefully stirred repeatedly to ensure evaporation so that no more acetone was present in the food. This was done to prevent mortality due to the presence of solvent in the treated food. Controls consisted of food that was treated with approximately 1 mL of just acetone. […] Concentrations used to assess mortality were 3.75% and 15% weight compound by weight food. Total mortality was assessed at 2 weeks after introducing cockroaches into individual mason jars with food treated with different compounds.
Data is presented as average percentage mortality with the standard error of the mean (SEM). A minimum of three replicates were performed for each compound and a ANOVA with a post-hoc Student Newman-Kuels test was performed to compare individual treatments to the control (α=0.05).

For data set [2], the system named is house flies (Musca domestica). Kind of data set: House fly feeding assay, solid food, choice assay. Type of data set: in vivo. As to conditions: 15% w/w food; treated and untreated food; 5-days post exposure (FIG. 6). From the text:
The choice assay included one untreated food source of 1:1 evaporated milk powder and sucrose and one treated food source (with toxic biorational compounds) comprised of the same materials. Moreover, toxic insecticidal bait compounds were incorporated into the food mixture at a concentration of 15% w/w food. This increased concentration of toxic insecticidal bait was chosen to account for the concomitant lower percentage mortality expected due to the presence of both a treated and untreated food source. Mortality was recorded at 5-days post exposure.
Data is presented as average percentage mortality with the standard error of the mean (SEM). This number was compared to the total number of flies introduced to each aquaria for each replicate, and a percentage mortality was calculated. A minimum of three replicates were performed for each compound.

Data set [3] concerns house flies (Musca domestica). The following applies: in vivo. As for the experimental part:
House flies (Musca domestica) were obtained from an established colony maintained by the Pesticide Toxicology Laboratory, Department of Entomology at iowa State University, Ames IA Flies were maintained according to standard laboratory protocols. House flies were supplied with water via cotton wick and solid support of sugar and dry milk (mixed 1:1), ad libitum. Prior to testing, house flies were maintained at a temperature of 24±2° C., were held at 30%±10% relative humidity, and a 12:12 hr light:dark photoperiod. Flies were randomly chosen from one of three separate Bioquip BugDorm® cages on different days to prevent a potential bias in health.

Data set [4] has as its system Northern house mosquitoes (Culex pipiens). As to conditions: 0.1%.
For data set [5], the system named is house flies (Musca domestica). Kind of data set: House fly feeding assay, solid food, non-choice. Type of data set: in vivo. The following applies: 5% weight/weight food compound plus 0.5% Z-9-tricosene (Muscalure) (FIG. 5). The text has this: Approximately 20-30 adult house flies (Musca domestica) were introduced into aquaria (2.5 gallon) with a French square filled with de-ionized water. Cotton dental wicks were used to draw water up and present it to flies at the top of the French square. Different concentrations of compounds were introduced into 1:1 mixtures of evaporated milk powder and sucrose. 2 grams of food was provided to flies with compound incorporated at various weights by weight food. If the material was solid, a mortar and pestle was used to homogenize the crushed evaporated milk powder, sucrose, and compound. If the material was a liquid, it was dissolved in acetone and aliquotted into the food slowly until the desired concentration of compound by weight food was achieved. If acetone was used as the carrier throughout the experiment, the food was carefully stirred repeatedly to ensure evaporation so that no more acetone was present in the food. The concentration used to assess mortality was 5% weight compound by weight food. Total mortality was assessed at 5 days after introducing house flies into individual mason jars with food treated with different compounds. […]
Data is presented as average percentage mortality with the standard error of the mean (SEM). This number was compared to the total number of flies introduced to each aquaria for each replicate, and a percentage mortality was calculated. […]

Regarding `CC(C)=CCCC(C)CC(=O)OC1C(OC(=O)CC(C)CCC=C(C)C)C(OC(=O)CC(C)CCC=C(C)C)C(OC(=O)CC(C)CCC=C(C)C)C(OC(=O)CC(C)CCC=C(C)C)C1OC(=O)CC(C)CCC=C(C)C` (centres unmarked) [hexacitronellyl inositol, hexacitronelloylinositol], the “mortality at two weeks” value in data set [1] is recorded as 100%.

Consider `CCCCCOC(=O)COc1cc(C)ccc1C(C)C` [amyl ester of thymyloxyacetic acid, amyl thymyloxyacetate], for which, in data set [2], the “toxicity and palatability in choice assay” value (shortened to “toxicity and palatability”) is “significant levels of toxicity”.

`CC(C)=CCCC(C)CC(=O)OCC(O)COC(=O)CC(C)CCC=C(C)C` (centres unmarked) [dicitronelloyl glycerol, dicitronelloylglycerol]: the “percentage mortality compared to the control at two weeks” value in data set [1] was “statistically significant percentage mortality compared to the control”.

As to `CC(C)=CCC/C(C)=C/COC(=O)COc1cc(C)ccc1C(C)C` [geranyl thymyloxyacetate], in data set [2], the “toxicity and palatability” value was “significant levels of toxicity”.

With `Cc1ccc(C(C)C)c(OCC(=O)O)c1` [thymyloxyacetic acid], in data set [3], the “mortality compared with boric acid” value is reported as “performed similarly”, the “percentage mortality at 48 hours” value was determined as 26.7%, the “percentage mortality at 72 hours” value is recorded as 80% and the “percentage mortality at 96 hours” value turned out to be 93.3%. The “percentage mortality at 120 hours” value in data set [3] came out at 100%. Besides, the “percentage mortality compared to boric acid (FIG. 8 legend)” value in data set [4] (96, 120, and 144 hours) was “higher numerical percentage mortality than boric acid”. Besides, the “percentage mortality compared to the sucrose-only control” value in data set [4] (96, 120, and 144 hours (FIG. 8)) is recorded as “statistically significant percentage mortality compared to the sucrose-only control”. Moreover, the “percentage mortality compared to boric acid” value in data set [4] (120 and 144 hours) is recorded as “much higher numerical percentage mortality compared to boric acid”. Moreover, the maximum percentage mortality in data set [4] (144 hours after introduction) is recorded as 95±3.53%. In addition, the “performance compared with boric acid” value in data set [4] (all time points, lack of statistical significance) is on record as “performed as well as boric acid”.

For `Cc1ccc(C(C)C)c(O)c1` [thymol, reference compound], in data set [3], the “percentage mortality at 120 hours” value is 25±10.7%.

On to `OB(O)O` [boric acid, reference compound], for which the “percentage mortality at 120 hours” value in data set [3] is recorded as 100%.

Turning to `O=C(CCCCC(=O)OC/C=C/c1ccccc1)OC/C=C/c1ccccc1` [dicinnamyl adipate], in data set [5], the “percentage mortality with added Z-9-tricosene” value is “higher percentage mortality; also recorded: increased toxicity”.

For `CC(C)=CCCC(C)CC(=O)OCCOC(=O)CC(C)CCC=C(C)C` (centres unmarked) [ethylene dicitronellate], in data set [1], the “percentage mortality compared to the control” value is recorded as “considerably higher percentage mortality at all time points compared to the control group”, the “percentage mortality compared to the control at two weeks” value was “statistically significant percentage mortality compared to the control” and the “mortality at two weeks” value is 100%. Moreover, the “percentage mortality compared to the control” value in data set [1] (listed as Ethylene dicitronellate) was “considerably higher percentage mortality compared to the control”.

Regarding `CC(C)=CCCC(C)CCOC(=O)COc1cc(C)ccc1C(C)C` (centres unmarked), the “toxicity and palatability” value in data set [2] is “significant levels of toxicity”.

In the case of `Cc1ccc(C(C)C)c(OCC(=O)OC(C)C)c1` [isopropyl ester of thymyloxyacetic acid], in data set [2], the “toxicity and palatability” value is on record as “significant levels of toxicity”.

By mortality is commonly meant the share of the test organisms that died. Lower therefore signals more survivors.
